Data published in patent US20090232757A1, “Use of gamma-amino butyric acid as a depigmenting agent” (priority 2006, published 2009).
“And” between values parts separate entries of the source, which are not always exact repeats. Identical values can stand only once. Like-named read-outs stand apart in the source and are kept apart here. Marks after values point to notes of the source that are not given here.

Assays:
normal human melanocytes [1] = settings: for Dose from which a cytotoxic effect is detected (less than 80% of the viable cells still present) / Percentage of viability (vs controls), Mean: human, 72 h
Protocol: The determination is performed with normal human melanocytes obtained from a young patient. For the performance of the tests, the cells have been cultured until obtention of confluent mono-layers.
As a comparison one has prepared a 10% solution of kojic acid and a 30% solution of lactic acid (composition E).
The tested preparations have been then directly diluted in the incubation medium for the melanocytes.
At the end of the incubation period, the viability of the cells has been evaluated using a spectrophotometric method for dosing the activity of the intracellular phosphatases. According to the method of Yan T. et al. (Anal. Biochem. 24 (1996) 103-108), one doses the p-nitrophenol resulting from the conversion of the phosphate of p-nitrophenol by means of the intracellular phophatases of the viable cells present in the wall of culture.

tyrosinase = molecular target: T1, tyrosinase (Homo sapiens, UniProt P14679); assay: Inhibiting activity on tyrosinase in cultures of normal human melanocytes; type: cell-based
T1 construct: cultures of normal human melanocytes; endogenous in cells; host or cells: normal human melanocytes
Excerpt: Gamma aminobutyric acid as well as its salts and derivatives used in such compositions has been studied on isolated cells and namely on cultures of normal human melanocytes. […] The obtained results are a function of the doses what is in favour of a specific effect of gamma-aminobutyric acid on this kind of parameters.

normal human melanocytes [2] = assay: Melanomodulating effect: intracellular melanine/proteins ratio in normal human melanocytes in monolayer culture (72 h); type: cell-based
Excerpt: The search of a “melanomodulating” effect has been performed in two steps: • melanomodulating effect of the active ingredients taken separately at predetermined concentrations in the cytotoxicity tests. • Melanomodulating effect of the complex, i.e. GABA in admixture with the other ingredients, white mulberry, lemon and lactic acid.
These tests have been performed on a model of normal human melanocytes cultured on monolayer cultures.
Gamma aminobutyric acid, lemon extract and white mulberry extract have been solubilized and directly diluted in the culture medium.
In this method the ratio melanine/proteins is determined as a percentage of the controls.
The effect of a complex containing the active ingredients A (gamma aminobutyric acid), C, D and lactic acid (composition E) has also been evaluated as a comparating element, on the synthesis of melanine in a model of normal human melanocytes cultured in a monolayer culture.
The tested compositions have therafter been directly diluted in the incubation medium for the melanocytes at a concentration of 0.1, 0.5 and 1% (v/v).
Normal human melanocytes have been utilized stemming from a young patient. They have been cultured in a monolayer culture until of a confluence of 80%.
1—Dosage of Melanine: • at the end of the incubation period, the intra cellular content of melanine has been quantified after cellular lysis, using a spectrophotometric measure at 405 nm.
2—Dosage of the Proteins: • at the end of incubation period the proteins contained in the cellular lysates have been determined using a spectrocolometric method based on Coomassie Blue according to the method of Bradford M. (Anal. Biochem. 72 (1976) 248-254).

T1 sequence (P14679 19-529): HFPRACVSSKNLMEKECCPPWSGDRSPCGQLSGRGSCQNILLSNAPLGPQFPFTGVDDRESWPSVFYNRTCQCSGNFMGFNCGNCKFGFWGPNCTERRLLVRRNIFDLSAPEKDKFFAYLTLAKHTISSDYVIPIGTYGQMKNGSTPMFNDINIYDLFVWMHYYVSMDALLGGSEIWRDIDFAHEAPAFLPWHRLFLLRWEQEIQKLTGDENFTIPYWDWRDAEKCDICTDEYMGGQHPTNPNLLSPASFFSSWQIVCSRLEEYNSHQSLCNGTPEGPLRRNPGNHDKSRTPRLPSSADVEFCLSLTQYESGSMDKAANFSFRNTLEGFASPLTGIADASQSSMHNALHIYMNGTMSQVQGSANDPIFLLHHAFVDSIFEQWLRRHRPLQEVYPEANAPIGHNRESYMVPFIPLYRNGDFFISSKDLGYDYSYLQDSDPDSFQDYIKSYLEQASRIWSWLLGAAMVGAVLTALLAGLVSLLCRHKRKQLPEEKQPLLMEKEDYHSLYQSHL

Compound: NCCCC(=O)O [A, gamma aminobutyric acid]
- Dose from which a cytotoxic effect is detected (less than 80% of the viable cells still present) (normal human melanocytes [1]): 0.5%
- Inhibiting activity on tyrosinase, result in words (tyrosinase): inhibiting activity on tyrosinase
- Concentration from which results on ratio melanine/proteins are statistically significant (normal human melanocytes [2]; Step 1, 72 h): 0.1%
- Ratio Melanine Proteins (% of the controls), Mean (normal human melanocytes [2]; Step 1, A 0.001% (w/v), 72 h, mean): 101.9 % of the controls
- Ratio Melanine Proteins (% of the controls) (normal human melanocytes [2]; Step 1, A 0.001% (w/v), 72 h, single values): 98.8 % of the controls and 108.6 % of the controls and 98.3 % of the controls
- Ratio Melanine Proteins (% of the controls), Mean (normal human melanocytes [2]; Step 1, A 0.01% (w/v), 72 h, mean): 96.6 % of the controls
- Ratio Melanine Proteins (% of the controls) (normal human melanocytes [2]; Step 1, A 0.01% (w/v), 72 h, single values): 87.0 % of the controls and 101.8 % of the controls and 101.1 % of the controls
- Ratio Melanine Proteins (% of the controls), Mean (normal human melanocytes [2]; Step 1, A 0.1% (w/v), 72 h, mean): 74.0* % of the controls
- Ratio Melanine Proteins (% of the controls) (normal human melanocytes [2]; Step 1, A 0.1% (w/v), 72 h, single values): 74.3 % of the controls and 76.4 % of the controls and 74.2 % of the controls and 71.3 % of the controls
- Intra cellular content of melanine in the cultured cells, result in words (normal human melanocytes [2]; cultured normal human melanocytes): clear decrease

Compound: CC(O)C(=O)O (stereo not shown) [E, lactic acid]
- Cytotoxicity, result in words (normal human melanocytes [1]): clearly cytotoxic
- Dose from which a cytotoxic effect is detected (less than 80% of the viable cells still present) (normal human melanocytes [1]): 0.03%
- Percentage of viability (vs controls), Mean (normal human melanocytes [1]; 0.003 % (v/v)): 80.8%
- Percentage of viability (vs controls), Mean (normal human melanocytes [1]; 0.03 % (v/v)): 73.2%
- Percentage of viability (vs controls), Mean (normal human melanocytes [1]; 0.075 % (v/v)): 70.8%
- Percentage of viability (vs controls), Mean (normal human melanocytes [1]; 0.15 % (v/v)): 65.9%
- Percentage of viability (vs controls), Mean (normal human melanocytes [1]; 0.3 % (v/v)): 6.2%
- Percentage of viability (vs controls), Mean (normal human melanocytes [1]; 0.75 % (v/v)): 2.4%
- Percentage of viability (vs controls), Mean (normal human melanocytes [1]; 1.5 % (v/v)): 0.2%
- Percentage of viability (vs controls), Mean (normal human melanocytes [1]; 3 % (v/v)): 0.8%

Compound: O=c1cc(CO)occ1O [Kojic Acid, Kojic acid]
- Ratio melanine/Proteins (% of the controls), Mean (normal human melanocytes [2]; Step 1, Kojic Acid 250 μM in DMSO, 72 h, mean): 77.40* % of the controls
- % of the controls (mean ratio melanine/proteins, controls = 100) (normal human melanocytes [2]; Step 2, Kojic Acid 250 μM, 72 h): 84.5 % of the controls
- Ratio melanine/Proteins (% of the controls), Mean (normal human melanocytes [2]; Step 2, Kojic Acid 250 μM, 72 h, mean (controls mean 119.2)): 100.8* % of the controls
- Ratio melanine/Proteins (% of the controls) (normal human melanocytes [2]; Step 2, Kojic Acid 250 μM, 72 h, single values): 106.3 % of the controls and 93.2 % of the controls and 102.8 % of the controls and 94.1 % of the controls and 97.9 % of the controls
- Decrease of the intra cellular content of melanine in the culture cells (normal human melanocytes [2]; Step 2, Kojic acid at 250 μM, 72 h, p<0.05): 15.5%
